From ChEMBL document CHEMBL3098031, “From NMDA receptor antagonists to discovery of selective σ₂ receptor ligands” (Bioorg Med Chem, 2014)
Activity calls are given as the source filed them. The calls are words filed in the database; no cut-off is given here.

Experiments:
Cavia porcellus = species: Cavia porcellus; test: Selectivity ratio of Ki for guinea pig brain sigma1 receptor to Ki for guinea pig brain sigma2 receptor
[1] = Displacement of [3H]DTG from guinea pig brain sigma2 receptor after 120 mins by scintillation counting analysis in presence of SKF10,047; parameters: species or system Cavia porcellus
[2] = biological target: Glutamate receptor ionotropic, NMDA 2B (Rattus norvegicus) (UniProt Q00960); test: Displacement of [3H]ifenprodil from Wistar rat cerebral cortex glutamate NMDA receptor GluN2B subunit at 10 uM after 120 mins by scintillation counting analysis; assay type: tissue-based
Sequence of Glutamate receptor ionotropic, NMDA 2B (Rattus norvegicus) (Q00960 27-1482 limits assumed): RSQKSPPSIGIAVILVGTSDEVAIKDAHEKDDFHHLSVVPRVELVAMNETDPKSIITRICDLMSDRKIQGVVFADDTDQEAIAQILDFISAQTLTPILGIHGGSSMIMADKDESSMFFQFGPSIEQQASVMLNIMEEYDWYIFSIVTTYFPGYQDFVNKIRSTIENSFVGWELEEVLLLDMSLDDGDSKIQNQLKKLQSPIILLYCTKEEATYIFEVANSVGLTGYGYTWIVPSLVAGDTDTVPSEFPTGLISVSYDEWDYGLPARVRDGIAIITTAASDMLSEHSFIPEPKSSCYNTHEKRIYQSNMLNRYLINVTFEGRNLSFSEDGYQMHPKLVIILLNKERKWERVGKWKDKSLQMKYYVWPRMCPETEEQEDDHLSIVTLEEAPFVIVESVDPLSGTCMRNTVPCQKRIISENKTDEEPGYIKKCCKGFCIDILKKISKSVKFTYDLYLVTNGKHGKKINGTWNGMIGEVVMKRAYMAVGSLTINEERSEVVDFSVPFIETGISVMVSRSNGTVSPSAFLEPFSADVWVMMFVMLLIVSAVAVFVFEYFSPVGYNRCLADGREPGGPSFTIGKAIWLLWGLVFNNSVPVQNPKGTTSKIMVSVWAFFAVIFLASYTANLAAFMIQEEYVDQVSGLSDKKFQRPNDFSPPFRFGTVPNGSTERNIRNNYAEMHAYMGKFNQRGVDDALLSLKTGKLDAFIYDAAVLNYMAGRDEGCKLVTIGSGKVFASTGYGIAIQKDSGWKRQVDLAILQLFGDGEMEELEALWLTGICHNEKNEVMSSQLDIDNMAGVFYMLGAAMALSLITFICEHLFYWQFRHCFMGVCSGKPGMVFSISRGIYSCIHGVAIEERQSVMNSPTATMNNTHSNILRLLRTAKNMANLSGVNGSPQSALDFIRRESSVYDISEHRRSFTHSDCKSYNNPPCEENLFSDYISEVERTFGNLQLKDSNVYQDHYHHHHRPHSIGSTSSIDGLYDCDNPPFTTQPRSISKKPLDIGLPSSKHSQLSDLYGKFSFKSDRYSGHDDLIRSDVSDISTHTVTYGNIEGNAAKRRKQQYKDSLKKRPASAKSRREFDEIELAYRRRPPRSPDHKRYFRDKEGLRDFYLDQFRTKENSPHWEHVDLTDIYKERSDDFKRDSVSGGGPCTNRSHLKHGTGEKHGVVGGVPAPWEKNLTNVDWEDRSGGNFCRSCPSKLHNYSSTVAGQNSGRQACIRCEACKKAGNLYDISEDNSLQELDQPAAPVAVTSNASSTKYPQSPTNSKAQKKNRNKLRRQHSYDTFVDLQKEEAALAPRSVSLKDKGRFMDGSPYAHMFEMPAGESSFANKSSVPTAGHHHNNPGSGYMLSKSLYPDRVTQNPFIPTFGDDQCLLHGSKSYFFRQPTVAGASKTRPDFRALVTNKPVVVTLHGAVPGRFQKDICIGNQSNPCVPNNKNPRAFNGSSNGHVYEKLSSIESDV

[3] = biological target: Sigma non-opioid intracellular receptor 1 (Cavia porcellus, UniProt Q60492); test: Displacement of [3H]-(+)-pentazocine from guinea pig brain sigma1 receptor after 150 mins by scintillation counting analysis
Sequence of Sigma non-opioid intracellular receptor 1 (Q60492 whole entry): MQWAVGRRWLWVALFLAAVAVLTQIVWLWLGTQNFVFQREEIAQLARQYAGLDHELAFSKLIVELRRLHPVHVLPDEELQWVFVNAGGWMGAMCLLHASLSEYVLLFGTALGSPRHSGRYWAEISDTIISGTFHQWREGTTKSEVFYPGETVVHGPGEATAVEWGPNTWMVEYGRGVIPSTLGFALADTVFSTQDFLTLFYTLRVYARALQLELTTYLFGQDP

[4] = biological target: Glutamate receptor ionotropic, NMDA 2B (Rattus norvegicus, UniProt Q00960); test: Displacement of [3H]ifenprodil from Wistar rat cerebral cortex glutamate NMDA receptor GluN2B subunit after 120 mins by scintillation counting analysis; assay type: tissue-based
Sequence of Glutamate receptor ionotropic, NMDA 2B (Q00960 whole entry): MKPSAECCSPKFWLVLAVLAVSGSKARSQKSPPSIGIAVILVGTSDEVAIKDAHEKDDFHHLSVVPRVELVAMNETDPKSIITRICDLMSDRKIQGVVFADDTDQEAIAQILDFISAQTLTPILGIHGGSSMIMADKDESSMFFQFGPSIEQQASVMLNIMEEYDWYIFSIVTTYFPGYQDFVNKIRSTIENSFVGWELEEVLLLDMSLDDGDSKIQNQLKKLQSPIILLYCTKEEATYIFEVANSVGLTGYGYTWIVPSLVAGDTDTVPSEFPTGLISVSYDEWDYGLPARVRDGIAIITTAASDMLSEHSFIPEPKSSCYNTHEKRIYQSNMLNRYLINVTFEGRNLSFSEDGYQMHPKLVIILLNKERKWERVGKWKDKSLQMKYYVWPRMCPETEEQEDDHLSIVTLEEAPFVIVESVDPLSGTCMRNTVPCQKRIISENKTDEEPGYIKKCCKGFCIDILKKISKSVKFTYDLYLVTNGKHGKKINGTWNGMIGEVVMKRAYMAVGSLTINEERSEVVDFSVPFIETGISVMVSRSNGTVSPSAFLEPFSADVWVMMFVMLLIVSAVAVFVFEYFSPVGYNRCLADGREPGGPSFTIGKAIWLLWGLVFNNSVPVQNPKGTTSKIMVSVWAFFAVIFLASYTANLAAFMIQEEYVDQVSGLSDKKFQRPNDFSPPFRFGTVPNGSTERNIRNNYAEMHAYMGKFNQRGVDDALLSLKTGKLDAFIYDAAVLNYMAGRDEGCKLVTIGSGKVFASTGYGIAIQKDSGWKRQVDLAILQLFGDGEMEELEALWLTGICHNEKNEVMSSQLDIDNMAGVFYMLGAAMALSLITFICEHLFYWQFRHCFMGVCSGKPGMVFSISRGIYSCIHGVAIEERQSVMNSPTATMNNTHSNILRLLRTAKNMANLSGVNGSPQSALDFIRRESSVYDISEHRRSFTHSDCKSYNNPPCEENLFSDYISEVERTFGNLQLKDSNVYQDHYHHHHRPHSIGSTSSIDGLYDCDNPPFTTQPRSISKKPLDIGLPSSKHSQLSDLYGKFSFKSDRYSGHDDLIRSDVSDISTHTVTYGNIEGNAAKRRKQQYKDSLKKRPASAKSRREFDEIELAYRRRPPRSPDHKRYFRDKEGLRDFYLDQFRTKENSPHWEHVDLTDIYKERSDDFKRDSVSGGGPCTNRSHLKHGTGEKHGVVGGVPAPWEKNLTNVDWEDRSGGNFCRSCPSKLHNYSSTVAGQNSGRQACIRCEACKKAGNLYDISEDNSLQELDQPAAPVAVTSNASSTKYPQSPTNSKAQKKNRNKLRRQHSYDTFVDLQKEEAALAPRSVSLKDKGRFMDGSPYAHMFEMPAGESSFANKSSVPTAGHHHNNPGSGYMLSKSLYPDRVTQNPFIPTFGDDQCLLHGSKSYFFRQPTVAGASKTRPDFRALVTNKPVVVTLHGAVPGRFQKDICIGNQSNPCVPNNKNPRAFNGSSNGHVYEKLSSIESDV

| SMILES | Ratio Ki (Cavia porcellus) | Ki [1] [nM] | inhibition [2] | Ki [3] [nM] | Ki [4] [nM] |
| --- | --- | --- | --- | --- | --- |
| O=C(CN1CCC(c2ccccc2)CC1)c1c[nH]c2ccc(O)cc12 | 12 | 224 | 51% | 2680 | – |
| O=C(CN1CCC(O)(c2ccccc2)CC1)c1c[nH]c2ccc(O)cc12 | 4.7 | 658 | 32% | 3080 | – |
| COc1ccc2[nH]cc(C(=O)CN3CCC(C#N)(c4ccccc4)CC3)c2c1 | – | – | 11% | – | – |
| COc1ccc2[nH]cc(C(=O)CN3CCC(Cc4ccccc4)CC3)c2c1 | > 500 | 10 | 86% | > 5000 | 1670 |
| N#CC1(c2ccccc2)CCN(CC(=O)c2c[nH]c3ccc(O)cc23)CC1 | – | – | 16% | – | – |
| COc1ccc2[nH]cc(C(=O)CN3CCC(C(C)=O)(c4ccccc4)CC3)c2c1 | – | – | inactive | – | – |
| CC(=O)C1(c2ccccc2)CCN(CC(=O)c2c[nH]c3ccc(O)cc23)CC1 | – | – | 6% | – | – |
| COc1ccc2[nH]cc(C(=O)CN3CCC(O)(c4ccc(Br)cc4)CC3)c2c1 | 6 | 10 | 5% | 60 | – |
| O=C(CN1CCC(Cc2ccccc2)CC1)c1c[nH]c2ccc(O)cc12 | 61.9 | 76.5 | 92% | 4730 | – |
| COc1ccc2[nH]cc(C(=O)CN3CCC(O)(c4ccccc4)CC3)c2c1 | 5 | 21 | 11% | 103 | – |
| COc1ccc2[nH]cc(C(=O)CN3CCC(c4ccccc4)CC3)c2c1 | 95.5 | 20 | 8% | 1910 | – |
| O=C(CN1CCC(O)(c2ccc(Cl)cc2)CC1)c1c[nH]c2ccc(O)cc12 | 11.9 | 47 | 26% | 557 | – |
| O=C(CN1CCC(O)(c2ccc(Br)cc2)CC1)c1c[nH]c2ccc(O)cc12 | 3.2 | 57 | 40% | 185 | – |
| COc1ccc2[nH]cc(C(=O)CN3CCC(O)(c4ccc(Cl)cc4)CC3)c2c1 | 10.5 | 7.5 | 15% | 78.5 | – |
